Test results from patent US20220132852A1, “PESTICIDALLY ACTIVE HETEROCYCLIC DERIVATIVES WITH SULFUR CONTAINING SUBSTITUENTS” (SYNGENTA CROP PROTECTION AG, priority 2019, published 2022).

Key:
Assay type in all cases: in vivo
[1] = test system: Myzus persicae (Green Peach Aphid); test: Example B5: Activity against Myzus persicae (green peach aphid), systemic activity; settings: 144 h, test rate 24 ppm, roots of pea seedlings in test solution, mixed ages, 6 days
Method: Example B5: Activity Against Myzus persicae (Green Peach Aphid) Systemic Activity
Roots of pea seedlings infested with an aphid population of mixed ages were placed directly into aqueous test solutions prepared from 10′000 DMSO stock solutions. The samples were assessed for mortality 6 days after placing seedlings into test solutions.

[2] = test system: Euschistus heros (Neotropical Brown Stink Bug); test: Example B2: Activity against Euschistus heros (neotropical brown stink bug), sprayed soybean leaves; settings: 120 h, application rate 200 ppm, N2 nymphs on sprayed soybean leaves, 5 days after infestation, read-out: effect in at least one of the two categories (mortality or growth inhibition)
Method: Example B2: Activity Against Euschistus heros (Neotropical Brown Stink Bug)
Soybean leaves on agar in 24-well microtiter plates were sprayed with aqueous test solutions prepared from 10′000 ppm DMSO stock solutions. After drying the leaves were infested with N2 nymphs. The samples were assessed for mortality and growth inhibition in comparison to untreated samples 5 days after infestation.

[3] = test system: Diabrotica balteata (Corn Root Worm); test: Example B1: Activity against Diabrotica balteata (corn root worm), sprayed maize sprouts; settings: 96 h, application rate 200 ppm, L2 larvae on sprayed maize sprouts, 4 days after infestation, read-out: effect in at least one of the two categories (mortality or growth inhibition)
Method: Example B1: Activity Against Diabrotica balteata (Corn Root Worm)
Maize sprouts placed onto an agar layer in 24-well microtiter plates were treated with aqueous test solutions prepared from 10′000 ppm DMSO stock solutions by spraying. After drying, the plates were infested with L2 larvae (6 to 10 per well). The samples were assessed for mortality and growth inhibition in comparison to untreated samples 4 days after infestation.

[4] = test system: Plutella xylostella (Diamond Back Moth); test: Example B3: Activity against Plutella xylostella (diamond back moth), artificial diet; settings: 192 h, application rate 200 ppm, eggs on artificial diet, 8 days after infestation, read-out: effect in at least one of the two categories (mortality or growth inhibition)
Method: Example B3: Activity Against Plutella xylostella (Diamond Back Moth)
24-well microtiter plates with artificial diet were treated with aqueous test solutions prepared from 10′000 ppm DMSO stock solutions by pipetting. After drying, Plutella eggs were pipetted through a plastic stencil onto a gel blotting paper and the plate was closed with it. The samples were assessed for mortality and growth inhibition in comparison to untreated samples 8 days after infestation. The following compounds gave an effect of at least 80% in at least one of the two categories (mortality or growth inhibition) at an application rate of 200 ppm: P2, P4, P5, P6, P8, P9, P10, P11, P12, P14, P15, P16, P17, P18, P19, P20, P21, P22, P23, P24, P25, P26, P27, P28, P29, P30, P31, P32, P33, P34, P35, P36, P38, P39, P40, P42, P45, P46, P47, P49, P50, P51, P52.

[5] = test system: Spodoptera littoralis (Egyptian Cotton Leaf Worm); test: Example B6: Activity against Spodoptera littoralis (Egyptian cotton leaf worm); settings: foliar, 72 h, application rate 200 ppm, L1 larvae on sprayed cotton leaf discs, 3 days after infestation, read-out: control (mortality, anti-feeding effect or growth inhibition)
Method: Example B6: Activity Against Spodoptera littoralis (Egyptian Cotton Leaf Worm)
Cotton leaf discs were placed onto agar in 24-well microtiter plates and sprayed with aqueous test solutions prepared from 10′000 ppm DMSO stock solutions. After drying the leaf discs were infested with five L1 larvae. The samples were assessed for mortality, anti-feeding effect, and growth inhibition in comparison to untreated samples 3 days after infestation. Control of Spodoptera littoralis by a test sample is given when at least one of the categories mortality, anti-feedant effect, and growth inhibition is higher than the untreated sample.

[6] = test system: Myzus persicae (Green Peach Aphid); test: whole plant or invertebrate; settings: foliar, 144 h, application rate 200 ppm, sprayed sunflower leaf discs, mixed ages, 6 days after infestation
Method: Example B4: Activity Against Myzus persicae (Green Peach Aphid) Feeding/Contact Activity
Sunflower leaf discs were placed onto agar in a 24-well microtiter plate and sprayed with aqueous test solutions prepared from 10′000 ppm DMSO stock solutions. After drying, the leaf discs were infested with an aphid population of mixed ages. The samples were assessed for mortality 6 days after infestation.

[7] = test system: Frankliniella occidentalis (Western Flower Thrips); test: Example B8: Activity against Frankliniella occidentalis (western flower thrips); settings: foliar, 168 h, application rate 200 ppm, sprayed sunflower leaf discs, mixed ages, 7 days after infestation
Method: Example B8: Activity Against Frankliniella occidentalis (Western Flower Thrips)
Sunflower leaf discs were placed on agar in 24-well microtiter plates and sprayed with aqueous test solutions prepared from […] stock solutions. After drying the leaf discs were infested with a Frankliniella population of mixed ages. The samples were assessed for mortality 7 days after infestation.

[8] = test system: Bemisia tabaci (Cotton White Fly); test: Example B7: Activity against Bemisia tabaci (cotton white fly); settings: foliar, 144 h, application rate 200 ppm, adult white flies on sprayed cotton leaf discs, 6 days after incubation
Method: Example B7: Activity Against Bemisia tabaci (Cotton White Fly)
Cotton leaf discs were placed on agar in 24-well microtiter plates and sprayed with aqueous test solutions prepared from 10′000 ppm DMSO stock solutions. After drying the leaf discs were infested with adult white flies. The samples were checked for mortality 6 days after incubation.

CCS(=O)(=O)c1cc(C2CC2)cnc1-c1cc2ncn(CC(F)(F)C(F)(F)F)c2cn1 [Compound P52, 6-(5-cyclopropyl-3-ethylsulfonyl-2-pyridyl)-3-(2,2,3,3,3-pentafluoropropyl) imidazo[4,5-c]pyridine]
≥ 80%: mortality at 24 ppm [1] | percent effect (mortality or growth inhibition) at 200 ppm [2] | percent effect (mortality or growth inhibition) at 200 ppm [3] | percent effect (mortality or growth inhibition) at 200 ppm [4] | percent control (mortality, anti-feedant effect or growth inhibition) at 200 ppm [5]

CCS(=O)(=O)c1cc(C2(C#N)CC2)cnc1-c1cc2ncn(CC(F)(F)C(F)(F)F)c2cn1 [Compound P34, 1-[5-ethylsulfonyl-6-[3-(2,2,3,3,3-pentafluoropropyl)imidazo [4,5-c]pyridin-6-yl]-3-pyridyl]cyclopropane-carbonitrile]
≥ 80%: mortality at 24 ppm [1] | mortality at 200 ppm [6] | percent effect (mortality or growth inhibition) at 200 ppm [2] | percent effect (mortality or growth inhibition) at 200 ppm [3] | percent effect (mortality or growth inhibition) at 200 ppm [4]

CCS(=O)(=O)c1cc(C(C)(C)C#N)cnc1-c1cc2ncn(CC(F)(F)C(F)(F)F)c2cn1 [Compound P40, 2-[5-ethylsulfonyl-6-[3-(2,2,3,3,3-pentafluoropropyl)imidazo[4,5-c]pyridin-6-yl]-3-pyridyl]-2-methyl-propanenitrile]
≥ 80%: mortality at 24 ppm [1] | mortality at 200 ppm [6] | percent effect (mortality or growth inhibition) at 200 ppm [2] | percent effect (mortality or growth inhibition) at 200 ppm [3] | percent effect (mortality or growth inhibition) at 200 ppm [4] | percent control (mortality, anti-feedant effect or growth inhibition) at 200 ppm [5]

CCS(=O)(=O)c1cc(N(C)C(C)=O)cnc1-c1cc2ccn(CC(F)(F)C(F)(F)F)c2cn1 [Compound P16, N-[5-ethylsulfonyl-6-[1-(2,2,3,3,3-pentafluoropropyl)pyrrolo[2,3-c]pyridin-5-yl]-3-pyridyl]-N-methyl-acetamide]
≥ 80%: mortality at 24 ppm [1] | mortality at 200 ppm [6] | percent effect (mortality or growth inhibition) at 200 ppm [3] | percent effect (mortality or growth inhibition) at 200 ppm [4] | percent control (mortality, anti-feedant effect or growth inhibition) at 200 ppm [5]

CCS(=O)(=O)c1ccc(N(C)C(C)=O)nc1-c1cc2cnn(CC(F)(F)C(F)(F)F)c2cn1 [Compound P12, N-[5-ethylsulfonyl-6-[1-(2,2,3,3,3-pentafluoropropyl)pyrazolo[3,4-c]pyridin-5-yl]-2-pyridyl]-N-methyl-acetamide]
≥ 80%: mortality at 24 ppm [1] | mortality at 200 ppm [6] | percent effect (mortality or growth inhibition) at 200 ppm [2] | percent effect (mortality or growth inhibition) at 200 ppm [3] | percent effect (mortality or growth inhibition) at 200 ppm [4] | percent control (mortality, anti-feedant effect or growth inhibition) at 200 ppm [5]

CCS(=O)(=O)c1cccnc1-c1cc2cnn(CC(F)(F)C(F)(F)F)c2cn1 [Compound P4, 5-(3-ethylsulfonyl-2-pyridyl)-1-(2,2,3,3,3-pentafluoropropyl)pyrazolo[3,4-c]pyridine]
≥ 80%: mortality at 24 ppm [1] | mortality at 200 ppm [6] | percent effect (mortality or growth inhibition) at 200 ppm [2] | percent effect (mortality or growth inhibition) at 200 ppm [3] | percent effect (mortality or growth inhibition) at 200 ppm [4] | percent control (mortality, anti-feedant effect or growth inhibition) at 200 ppm [5]

CCSc1cc(C(C)(C)C#N)cnc1-c1cc2ncn(CC(F)(F)C(F)(F)F)c2cn1 [Compound P47, 2-[5-ethylsulfanyl-6-[3-(2,2,3,3,3-pentafluoropropyl)imidazo[4,5-c]pyridin-6-yl]-3-pyridyl]-2-methyl-propanenitrile]
≥ 80%: mortality at 200 ppm [7] | percent effect (mortality or growth inhibition) at 200 ppm [2] | percent effect (mortality or growth inhibition) at 200 ppm [3] | percent effect (mortality or growth inhibition) at 200 ppm [4]

CCS(=O)(=O)c1cc(C(F)(F)F)cnc1-c1cc2cnn(CC(F)(F)C(F)(F)F)c2cn1 [Compound P31, 5-[3-ethylsulfonyl-5-(trifluoromethyl)-2-pyridyl]-1-(2,2,3,3,3-pentafluoropropyl) pyrazolo[3,4-c] pyridine]
≥ 80%: percent effect (mortality or growth inhibition) at 200 ppm [2] | percent effect (mortality or growth inhibition) at 200 ppm [3] | percent effect (mortality or growth inhibition) at 200 ppm [4] | percent control (mortality, anti-feedant effect or growth inhibition) at 200 ppm [5] | mortality at 200 ppm [8]

CCS(=O)(=O)c1ccc(-c2ncccn2)nc1-c1cc2cnn(CC(F)(F)C(F)(F)F)c2cn1 [Compound P25, 5-(3-ethylsulfonyl-6-pyrimidin-2-yl-2-pyridyl)-1-(2,2,3,3,3-pentafluoropropyl) pyrazolo[3,4-c]pyridine]
≥ 80%: mortality at 24 ppm [1] | mortality at 200 ppm [6] | mortality at 200 ppm [7] | percent effect (mortality or growth inhibition) at 200 ppm [2] | percent effect (mortality or growth inhibition) at 200 ppm [3] | percent effect (mortality or growth inhibition) at 200 ppm [4] | percent control (mortality, anti-feedant effect or growth inhibition) at 200 ppm [5]

CCSc1cccnc1-c1cc2ncn(CC(F)(F)C(F)(F)F)c2cn1 [Compound P44, 6-(3-ethylsulfanyl-2-pyridyl)-3-(2,2,3,3,3-pentafluoropropyl) imidazo[4,5-c]pyridine]
≥ 80%: mortality at 24 ppm [1] | mortality at 200 ppm [6]

CCSc1cc(C2(C#N)CC2)cnc1-c1cc2cnn(CC(F)(F)C(F)(F)F)c2cn1 [Compound P10, 1-[5-ethylsulfanyl-6-[1-(2,2,3,3,3-pentafluoropropyl)pyrazolo[3,4-c]pyridin-5-yl]-3-pyridyl]cyclopropanecarbonitrile]
≥ 80%: mortality at 200 ppm [7] | percent effect (mortality or growth inhibition) at 200 ppm [2] | percent effect (mortality or growth inhibition) at 200 ppm [3] | percent effect (mortality or growth inhibition) at 200 ppm [4] | percent control (mortality, anti-feedant effect or growth inhibition) at 200 ppm [5]

CCS(=O)(=O)c1cc(N(C)C(C)=O)cnc1-c1cc2cnn(CC(F)(F)C(F)(F)F)c2cn1 [Compound P2, N-[5-ethylsulfonyl-6-[1-(2,2,3,3,3-pentafluoropropyl)pyrazolo[3,4-c]pyridin-5-yl]-3-pyridyl]-N-methyl-acetamide]
≥ 80%: mortality at 24 ppm [1] | mortality at 200 ppm [6] | percent effect (mortality or growth inhibition) at 200 ppm [2] | percent effect (mortality or growth inhibition) at 200 ppm [3] | percent effect (mortality or growth inhibition) at 200 ppm [4] | percent control (mortality, anti-feedant effect or growth inhibition) at 200 ppm [5]
